Values of other authors as cited in publication PMC4047818 (Biochemistry, 2014).
Like-named read-outs stand apart in the source and are kept apart here. One block for each substance: values may come before it.

Assays:
[1] = test system: insulin receptor; parameters: method as in 24 sources, one per row (each row's own in cited_ref): ref [58] = [58]; PMID 18048361; doi:10.1074/jbc.M709220200; Gauguin L.; Klaproth B.; Sajid W.; Andersen A. S.; McNeil K. A.; Forbes B. E.; De Meyts P. ( 2008 ) Structural basis for the lower affinity of the insulin-like growth factors for the insulin rec ||| ref [59] = [59]; PMID 9148904; doi:10.1074/jbc.272.20.12978; Kristensen C.; Kjeldsen T.; Wiberg F. C.; Schaffer L.; Hach M.; Havelund S.; Bass J.; Steiner D. F.; Andersen A. S. ( 1997 ) Alanine scanning mutagenesis of insulin . J. Biol. Chem. 272 , 1297 ||| ref [33] = [33]; PMID 17316105; doi:10.1089/dia.2006.0035; Becker R. H. A. ( 2007 ) Insulin glulisine complementing basal insulins: A review of structure and activity . Diabetes Technol. Ther. 9 , 109 – 121 . 17316105 10.1089/dia.2006.0035 ||| ref [60],[61] = [60]; PMID 3541911; doi:10.1042/bj2380345; Bajaj M.; Blundell T. L.; Horuk R.; Pitts J. E.; Wood S. P.; Gowan L. K.; Schwabe C.; Wollmer A.; Gliemann J.; Gammeltoft S. ( 1986 ) Coypu Insulin: Primary Structure, Conformation and Biolog || [61]; PMID 11445250; doi:10.1016/s0196-9781(01)00423-5; Conlon J. M. ( 2001 ) Evolution of the insulin molecule: Insights into structure-activity and phylogenetic relationships . Peptides 22 , 1183 – 1193 . 11445250 10.1016/s0196-9781(01)00423-5 ||| ref [66] = [66]; PMID 2268358; doi:10.1016/s0006-291x(05)80882-4; Burke G. T.; Hu S. Q.; Ohta N.; Schwartz G. P.; Zong L.; Katsoyannis P. G. ( 1990 ) Superactive insulins . Biochem. Biophys. Res. Commun. 173 , 982 – 987 . 2268358 10.1016/s0006-291x(05)80882-4 ||| ...; details: for relative affinity: insulin = 100
[2] = target: insulin receptor (Homo sapiens) (UniProt P06213); assay: radioligand binding
Chain of UniProt P06213 (P06213 763-1382): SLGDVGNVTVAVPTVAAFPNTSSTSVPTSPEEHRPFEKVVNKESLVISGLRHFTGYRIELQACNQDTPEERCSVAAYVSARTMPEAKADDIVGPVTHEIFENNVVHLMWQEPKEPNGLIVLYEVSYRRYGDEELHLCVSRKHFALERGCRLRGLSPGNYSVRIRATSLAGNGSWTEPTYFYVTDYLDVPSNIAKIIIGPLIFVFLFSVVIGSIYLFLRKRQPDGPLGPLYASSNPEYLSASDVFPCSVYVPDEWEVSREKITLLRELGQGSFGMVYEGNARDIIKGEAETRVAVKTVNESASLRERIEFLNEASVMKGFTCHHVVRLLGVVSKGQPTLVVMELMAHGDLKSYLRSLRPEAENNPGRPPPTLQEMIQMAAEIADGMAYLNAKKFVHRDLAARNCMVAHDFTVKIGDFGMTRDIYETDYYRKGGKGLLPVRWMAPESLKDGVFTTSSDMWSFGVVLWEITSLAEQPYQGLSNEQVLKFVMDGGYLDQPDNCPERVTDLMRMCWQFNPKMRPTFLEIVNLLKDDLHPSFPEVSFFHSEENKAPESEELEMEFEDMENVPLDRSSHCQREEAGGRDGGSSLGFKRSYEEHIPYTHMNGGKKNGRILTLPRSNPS

Chain of insulin (P01308 90-110): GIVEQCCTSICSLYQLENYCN

Substance: DKPwinsulin: monomeric insulin analogue containing three substitutions in the B-chain (AspB10, LysB28, ProB29)
relative affinity ([1]; ref (15)): 160%

Substance: [AlaB1]winsulin: literature insulin analogue, Ala at B1
relative affinity ([1]; ref (6)): 79%

Substance: [AlaB2]winsulin: literature insulin analogue, Ala at B2
relative affinity ([1]; ref (6)): 110%

Substance: [AlaB3]-insulin: literature insulin analogue, Ala at B3
relative affinity ([1]; ref (6)): 134% | binding affinity ([1]; relative to HI, ref [59]): 134%

Substance: [AlaB4]winsulin: literature insulin analogue, Ala at B4
relative affinity ([1]; ref (6)): 54%

Substance: [AlaB5]-insulin: literature insulin analogue, Ala at B5
relative affinity ([1]; ref (9)): 31%

Substance: [AlaB5]DKPwinsulin: DKP-insulin analogue, Ala at B5
relative affinity ([1]; ref (13)): 129%

Substance: [AlaB6]winsulin: literature insulin analogue, Ala at B6
relative affinity ([1]; ref (6, 14)): 1.4%

Substance: [ArgB5]winsulin: insulin with naturally occurring ArgB5 mutation
relative affinity ([1]; ref (10)): 40%

Substance: [AsnB5]winsulin: literature insulin analogue, Asn at B5
relative affinity ([1]; ref (12)): 46%

Substance: [AspB5]-insulin: literature insulin analogue, Asp at B5
relative affinity ([1]; ref (12)): 0.4% | binding affinity ([1]; relative to HI, ref [66]): 0.4%

Substance: [Cys(B4–B10),desB30]-insulin: literature insulin analogue with an additional B4–B10 disulfide bond, desB30
relative affinity ([1]; ref (8)): 132% | affinity ([1]; relative to HI, ref [31]): 130%

Substance: [GlyB6]winsulin: literature insulin analogue, Gly at B6
relative affinity ([1]; ref (14)): 0.052%

Substance: [LeuB8,desB30]winsulin: literature insulin analogue, Leu at B8, desB30
relative affinity ([1]; ref (18)): < 0.2%

Substance: [MetB6]winsulin: literature insulin analogue, Met at B6
relative affinity ([1]; ref (14)): 15%

Substance: [PheB6]winsulin: literature insulin analogue, Phe at B6
relative affinity ([1]; ref (14)): 10%

Substance: [ProB3]-insulin: literature insulin analogue, Pro at B3
relative affinity ([1]; ref (7)): 54% | binding affinity ([1]; relative to HI, ref [58]): 54%

Substance: [SerB3]-insulin: literature insulin analogue, Ser at B3
relative affinity ([1]; ref (7)): 97% | binding affinity ([1]; relative to HI, ref [58]): 97%

Substance: [SerB8,desB30]winsulin: literature insulin analogue, Ser at B8, desB30
relative affinity ([1]; ref (18)): 23% | IR affinity relative to HI ([1]; published analogues, ref Table S5 of the Supporting Information): 23%

Substance: [SerB8]DKPwinsulin: DKP-insulin analogue, Ser at B8
relative affinity ([1]; ref (15, 17)): 90%

Substance: [ThrB8,desB30]winsulin: literature insulin analogue, Thr at B8, desB30
relative affinity ([1]; ref (18)): < 0.2%

Substance: [ValB6]winsulin: literature insulin analogue, Val at B6
relative affinity ([1]; ref (14)): 3.3%

Kd [2]: 0.3 nM
Substance: insulin (from UniProt P01308)

Substance: insulin glulisine: [LysB3,GluB29]-insulin analogue
affinity ([1]; relative to wild type, ref [33]): wild-type-like affinity
